Assay results as given in patent publication US12655116B2, “Substituted isophthalic acid diamides” (Bayer Aktiengesellschaft, priority 2020, dated 2026).

Experiments:
ABUTH [1] = assay: Pre-emergence herbicidal action against ABUTH; assay type: in vivo, Abutilon theophrasti; details: Abutilon theophrasti, 504 h; for pest or weed control at 80 g/ha: scored visually after 3 weeks vs untreated controls (100% = plants have died, 0% = like control plants)
Procedure, shortened: (§1)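 Seeds sown in sandy loam, soil-covered; compound sprayed on soil surface pre-emergence. Application: WP/EC, 600–800 l/ha, 0.2% wetting agent. Readout: visual % damage at 3 weeks.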

ALOMY [2] = assay: Pre-emergence herbicidal action against ALOMY; assay type: in vivo, Alopecurus myosuroides; details: Alopecurus myosuroides, 504 h, pre-emergence
Procedure, shortened: as §1

AMARE [3] = assay: Pre-emergence herbicidal action against AMARE; assay type: in vivo, Amaranthus retroflexus; details: Amaranthus retroflexus, 504 h, 100% = plants have died, 0% = like control plants
Procedure, shortened: as §1

AVEFA [4] = assay: Pre-emergence herbicidal action against AVEFA; assay type: in vivo, Avena fatua; details: Avena fatua, 504 h, pre-emergence
Procedure, shortened: as §1

ECHCG [5] = assay: Pre-emergence herbicidal action against ECHCG; assay type: in vivo, Echinochloa crus-galli; details: Echinochloa crus-galli, 504 h
Procedure, shortened: as §1

HORMU = assay: Pre-emergence herbicidal action against HORMU; assay type: in vivo, Hordeum murinum; details: Hordeum murinum, 504 h, pre-emergence
Procedure, shortened: as §1

LOLRI = assay: Pre-emergence herbicidal action against LOLRI; assay type: in vivo, Lolium rigidum; details: Lolium rigidum, 504 h, 80 g/ha
Procedure, shortened: as §1

MATIN [6] = assay: Pre-emergence herbicidal action against MATIN; assay type: in vivo, Matricaria inodora; details: Tripleurospermum inodorum, 504 h; for pest or weed control at 80 g/ha: dosage 80 g/ha
Procedure, shortened: as §1

PHBPU [7] = assay: Pre-emergence herbicidal action against PHBPU; assay type: in vivo, Pharbitis purpurea; details: Ipomoea purpurea, 504 h, dosage 80 g/ha
Procedure, shortened: as §1

POLCO [8] = assay: Pre-emergence herbicidal action against POLCO; assay type: in vivo, Polygonum convolvulus; details: Fallopia convolvulus, 504 h, dosage 80 g/ha
Procedure, shortened: as §1

SETVI [9] = assay: Pre-emergence herbicidal action against SETVI; assay type: in vivo, Setaria viridis; details: Setaria viridis, 504 h; for pest or weed control at 80 g/ha: dosage 80 g/ha
Procedure, shortened: as §1

STEME [10] = assay: Pre-emergence herbicidal action against STEME; assay type: in vivo, Stellaria media; details: Stellaria media, 504 h; for pest or weed control at 80 g/ha: dosage 80 g/ha
Procedure, shortened: as §1

VERPE = assay: Pre-emergence herbicidal action against VERPE; assay type: in vivo, Veronica persica; details: Veronica persica, 504 h, dosage 80 g/ha
Procedure, shortened: as §1

VIOTR [11] = assay: Pre-emergence herbicidal action against VIOTR; assay type: in vivo, Viola tricolor; details: Viola tricolor, 504 h
Procedure, shortened: as §1

DIGSA [12] = assay: Pre-emergence herbicidal action against DIGSA; assay type: in vivo, Digitaria sanguinalis; details: Digitaria sanguinalis, 504 h; for pest or weed control at 80 g/ha: dosage 80 g/ha
Procedure, shortened: as §1

ABUTH [13] = assay: Post-emergence herbicidal action against ABUTH; assay type: in vivo, Abutilon theophrasti; details: Abutilon theophrasti, 504 h, visual assessment about 3 weeks after treatment vs untreated controls; for pest or weed control at 20 g/ha: dosage 20 g/ha
Procedure, shortened: (§2)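 Percent herbicidal action is rated by eye about 3 weeks after treatment against untreated controls, where 100% means dead plants and 0% means like controls. Plants in sandy loam are sprayed on green parts at the one-leaf stage with aqueous WP or EC preparations at 600 to 800 l/ha plus 0.2% wetting agent.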

ALOMY [14] = assay: Post-emergence herbicidal action against ALOMY; assay type: in vivo, Alopecurus myosuroides; details: Alopecurus myosuroides, 504 h, dosage 20 g/ha, visual assessment about 3 weeks after treatment vs untreated controls
Procedure, shortened: as §2

AMARE [15] = assay: Post-emergence herbicidal action against AMARE; assay type: in vivo, Amaranthus retroflexus; details: Amaranthus retroflexus, 504 h, visual assessment about 3 weeks after treatment, 100% = plants have died, 0% = like control plants
Procedure, shortened: as §2

ECHCG [16] = assay: Post-emergence herbicidal action against ECHCG; assay type: in vivo, Echinochloa crus-galli; details: Echinochloa crus-galli, 504 h; for pest or weed control at 20 g/ha: dosage 20 g/ha
Procedure, shortened: as §2

MATIN [17] = assay: Post-emergence herbicidal action against MATIN; assay type: in vivo, Matricaria inodora; details: Tripleurospermum inodorum, 504 h
Procedure, shortened: as §2

PHBPU [18] = assay: Post-emergence herbicidal action against PHBPU; assay type: in vivo, Pharbitis purpurea; details: Ipomoea purpurea, 504 h, dosage 20 g/ha
Procedure, shortened: as §2

POLCO [19] = assay: Post-emergence herbicidal action against POLCO; assay type: in vivo, Polygonum convolvulus; details: Fallopia convolvulus, 504 h
Procedure, shortened: as §2

SETVI [20] = assay: Post-emergence herbicidal action against SETVI; assay type: in vivo, Setaria viridis; details: Setaria viridis, 504 h
Procedure, shortened: as §2

STEME [21] = assay: Post-emergence herbicidal action against STEME; assay type: in vivo, Stellaria media; details: Stellaria media, 504 h
Procedure, shortened: as §2

VIOTR [22] = assay: Post-emergence herbicidal action against VIOTR; assay type: in vivo, Viola tricolor; details: Viola tricolor, 504 h
Procedure, shortened: as §2

DIGSA [23] = assay: Post-emergence herbicidal action against DIGSA; assay type: in vivo, Digitaria sanguinalis; details: Digitaria sanguinalis, 504 h
Procedure, shortened: as §2

AVEFA [24] = assay: Post-emergence herbicidal action against AVEFA; assay type: in vivo, Avena fatua; details: Avena fatua, 504 h, visual assessment about 3 weeks after treatment, 100% = plants have died, 0% = like control plants
Procedure, shortened: as §2

[25] = 20 g/ha, scored visually after 3 weeks, 100% = plants have died, 0% = like control plants
[26] = scored visually after 3 weeks vs untreated controls

CCn1nnnc1NC(=O)c1ccc(C(F)F)c(C(=O)NC2CC2)c1Cl [Example 2-149]
90%: pest or weed control at 80 g/ha (ALOMY [2]; 80 g/ha, scored visually after 3 weeks vs untreated controls (100% = plants have died, 0% = like control plants)) | pest or weed control at 80 g/ha (ECHCG [5]; 80 g/ha) | pest or weed control at 80 g/ha (HORMU; 80 g/ha) | pest or weed control at 80 g/ha (LOLRI) | pest or weed control at 20 g/ha (MATIN [6]; dosage 20 g/ha) | pest or weed control at 20 g/ha (DIGSA [12]; dosage 20 g/ha) | pest or weed control at 5 g/ha (MATIN [17]; dosage 5 g/ha) | pest or weed control at 20 g/ha (PHBPU [18]) | pest or weed control at 5 g/ha (SETVI [20]; dosage 5 g/ha) | pest or weed control at 20 g/ha (STEME [21]) | pest or weed control at 5 g/ha (STEME [21]; dosage 5 g/ha)
100%: pest or weed control at 80 g/ha (ABUTH [1]) | pest or weed control at 20 g/ha (ABUTH [1]; dosage 20 g/ha, scored visually after 3 weeks vs untreated controls, 100% = plants have died, 0% = like control plants, read-out: Pre-emergence action against ABUTH (herbicidal activity in percent)) | pest or weed control at 20 g/ha (AMARE [3]; 20 g/ha, scored visually after 3 weeks vs untreated controls) | pest or weed control at 80 g/ha (AMARE [3]; [26]) | pest or weed control at 80 g/ha (AVEFA [4]; 80 g/ha) | pest or weed control at 80 g/ha (MATIN [6]) | pest or weed control at 80 g/ha (POLCO [8]) | pest or weed control at 80 g/ha (SETVI [9]) | pest or weed control at 20 g/ha (STEME [10]; dosage 20 g/ha) | pest or weed control at 80 g/ha (STEME [10]) | pest or weed control at 20 g/ha (VIOTR [11]; dosage 20 g/ha) | pest or weed control at 80 g/ha (VIOTR [11]; dosage 80 g/ha) | pest or weed control at 80 g/ha (DIGSA [12]) | pest or weed control at 20 g/ha (ABUTH [13]) | pest or weed control at 20 g/ha (AMARE [15]; 20 g/ha) | pest or weed control at 20 g/ha (MATIN [17]; dosage 20 g/ha) | pest or weed control at 20 g/ha (SETVI [20]; dosage 20 g/ha) | pest or weed control at 5 g/ha (VIOTR [22]; 5 g/ha) | pest or weed control at 20 g/ha (VIOTR [22]; 20 g/ha) | pest or weed control at 5 g/ha (DIGSA [23]; 5 g/ha) | pest or weed control at 20 g/ha (DIGSA [23])
80%: pest or weed control at 20 g/ha (ALOMY [2]; [25]) | pest or weed control at 20 g/ha (AVEFA [4]; [25]) | pest or weed control at 80 g/ha (PHBPU [7]) | pest or weed control at 80 g/ha (VERPE) | pest or weed control at 5 g/ha (ABUTH [13]; dosage 5 g/ha) | pest or weed control at 20 g/ha (ALOMY [14]) | pest or weed control at 20 g/ha (ECHCG [16]) | pest or weed control at 20 g/ha (POLCO [19]; dosage 20 g/ha)

CNC(=O)c1c(C(F)(F)F)ccc(C(=O)Nc2nnc(C)o2)c1SC [Example 6-58]
100%: pest or weed control at 80 g/ha (ABUTH [1]) | pest or weed control at 320 g/ha (ABUTH [1]; Dosage: 320 g/ha, scored visually after 3 weeks, 100% = plants have died, 0% = like control plants) | pest or weed control at 80 g/ha (AMARE [3]; [26]) | pest or weed control at 320 g/ha (AMARE [3]; 320 g/ha, scored visually after 3 weeks) | pest or weed control at 320 g/ha (ECHCG [5]; 320 g/ha) | pest or weed control at 320 g/ha (MATIN [6]; dosage 320 g/ha) | pest or weed control at 80 g/ha (SETVI [9]) | pest or weed control at 320 g/ha (SETVI [9]; dosage 320 g/ha) | pest or weed control at 80 g/ha (DIGSA [12]) | pest or weed control at 320 g/ha (DIGSA [12]; dosage 320 g/ha) | pest or weed control at 80 g/ha (POLCO [19]; dosage 80 g/ha)
90%: pest or weed control at 320 g/ha (HORMU; 320 g/ha) | pest or weed control at 80 g/ha (STEME [10]) | pest or weed control at 320 g/ha (STEME [10]; dosage 320 g/ha) | pest or weed control at 320 g/ha (VIOTR [11]; dosage 320 g/ha) | pest or weed control at 80 g/ha (AMARE [15]; 80 g/ha) | pest or weed control at 80 g/ha (AVEFA [24]; 80 g/ha) | pest or weed control at 20 g/ha (ECHCG [16]) | pest or weed control at 80 g/ha (ECHCG [16]; dosage 80 g/ha) | pest or weed control at 80 g/ha (DIGSA [23]; 80 g/ha)
80%: pest or weed control at 80 g/ha (MATIN [6]) | pest or weed control at 20 g/ha (ABUTH [13]) | pest or weed control at 80 g/ha (ABUTH [13]; dosage 80 g/ha) | pest or weed control at 20 g/ha (AVEFA [24]; 20 g/ha) | pest or weed control at 20 g/ha (STEME [21]) | pest or weed control at 80 g/ha (STEME [21]; 80 g/ha) | pest or weed control at 20 g/ha (DIGSA [23])
